Literature values as cited in patent publication US12377095B2, “Use of ligustrazine nitrone derivatives in treatment and prevention of diabetic complication diseases” (QINGDAO HAILAN PHARMACEUTICALS CO., LTD., priority 2019, dated 2025).
Read-outs that look alike come from different tables or passages of the source.

Legend:
[1] = tested on: rats with diabetic nephropathy; settings: rats with diabetic nephropathy induced by streptozotocin; cited from earlier work
[2] = tested on: human renal proximal tubule cells; settings: cited from earlier work
[3] = tested on: patients with diabetic nephropathy; settings: cited from earlier work
[4] = tested on: patients with type 2 diabetes with peripheral neuropathy; settings: cited from earlier work
[5] = rabbit, intraperitoneal injection of tetramethylpyrazine hydrochloride; cited from earlier work
[6] = tested on: patients with diabetic retinopathy; settings: electronically controlled tetramethylpyrazine ion added to puerarin injection and Zishen Jianpi Huayu Recipe; control group 67.50%; cited from earlier work
[7] = combined application vs conventional treatment group

Cc1nc(C)c(C)nc1C [tetramethylpyrazine, Tetramethylpyrazine]
blood glucose [1]: down-regulate | renal function [1]: significantly improve | urine protein exclusion [1]: down-regulate | activity against sodium arsenite-induced damage [2]: protective activity | 24 h total urine proteins [3, 7]: reduce | 24 h urinary albumin excretion rate [3, 7]: reduce | 24 h urine protein quantitation [3, 7]: reduce | effect on reduction of blood urea nitrogen [3, 7]: not significant | effect on reduction of diastolic blood pressure [3, 7]: not significant | effect on reduction of systolic blood pressure [3, 7]: not significant | adverse reaction during the use ([3]; tetramethylpyrazine injection, patients with diabetic nephropathy): no indication of serious adverse reaction | total effective rate of treatment ([4]; conventional dose injection 80 mg/d): 82.93% | total effective rate of treatment ([4]; injection 360-400 mg/d, intravenous drops, 12 d course): 95% | entry into retinal tissue [5]: can enter the retinal tissue through the blood-retinal barrier | total effective rate [6]: 86.84%
